Test results reported in ChEMBL document CHEMBL6071190, “Discovery of BAY 2666605, a Molecular Glue for PDE3A and SLFN12” (ACS Med Chem Lett, 2024).

Key:
[1] = Selectivity ratio of IC50 for inhibition of full-length human PDE3A expressed in Sf9 cells to EC50 for antiproliferative activity against human HeLa cells
[2] = Metabolic stability in mouse hepatocytes assessed as bioavailability at 1 uM measured upto 90 mins by LC-MS/MS analysis; assay type: ADME, Hepatocyte
[3] = Metabolic stability in dog hepatocytes assessed as bioavailability at 1 uM measured upto 90 mins by LC-MS/MS analysis; assay type: ADME, Canis lupus familiaris, Hepatocyte
HeLa = experiment: Antiproliferative activity against human HeLa cells incubated for 72 hrs by Cell Titer Glo luminescence assay; assay type: functional, cell-based
[4] = Metabolic stability in rat hepatocytes assessed as bioavailability at 1 uM measured upto 90 mins by LC-MS/MS analysis; assay type: ADME, Hepatocyte
[5] = Clearance in mouse blood; assay type: ADME, tissue-based
[6] = Metabolic stability in human hepatocytes assessed as bioavailability at 1 uM measured upto 90 mins by LC-MS/MS analysis; assay type: ADME, Hepatocyte
SK-MEL3 = experiment: Antiproliferative activity against human SK-MEL3 cells incubated for 72 hrs by Cell Titer Glo luminescence assay; assay type: functional, cell-based; conditions: SK-MEL3, 72 h
[7] = molecular target: cGMP-inhibited 3',5'-cyclic phosphodiesterase 3A (Homo sapiens, UniProt Q14432); experiment: Inhibition of human full-length PDE3A expressed in Sf9 cells using [8-3H]adenosine 3', 5'-cyclic phosphate as substrate incubated for 60 mins by microbeta scintillation counting method
Chain of cGMP-inhibited 3',5'-cyclic phosphodiesterase 3A (Q14432 whole entry): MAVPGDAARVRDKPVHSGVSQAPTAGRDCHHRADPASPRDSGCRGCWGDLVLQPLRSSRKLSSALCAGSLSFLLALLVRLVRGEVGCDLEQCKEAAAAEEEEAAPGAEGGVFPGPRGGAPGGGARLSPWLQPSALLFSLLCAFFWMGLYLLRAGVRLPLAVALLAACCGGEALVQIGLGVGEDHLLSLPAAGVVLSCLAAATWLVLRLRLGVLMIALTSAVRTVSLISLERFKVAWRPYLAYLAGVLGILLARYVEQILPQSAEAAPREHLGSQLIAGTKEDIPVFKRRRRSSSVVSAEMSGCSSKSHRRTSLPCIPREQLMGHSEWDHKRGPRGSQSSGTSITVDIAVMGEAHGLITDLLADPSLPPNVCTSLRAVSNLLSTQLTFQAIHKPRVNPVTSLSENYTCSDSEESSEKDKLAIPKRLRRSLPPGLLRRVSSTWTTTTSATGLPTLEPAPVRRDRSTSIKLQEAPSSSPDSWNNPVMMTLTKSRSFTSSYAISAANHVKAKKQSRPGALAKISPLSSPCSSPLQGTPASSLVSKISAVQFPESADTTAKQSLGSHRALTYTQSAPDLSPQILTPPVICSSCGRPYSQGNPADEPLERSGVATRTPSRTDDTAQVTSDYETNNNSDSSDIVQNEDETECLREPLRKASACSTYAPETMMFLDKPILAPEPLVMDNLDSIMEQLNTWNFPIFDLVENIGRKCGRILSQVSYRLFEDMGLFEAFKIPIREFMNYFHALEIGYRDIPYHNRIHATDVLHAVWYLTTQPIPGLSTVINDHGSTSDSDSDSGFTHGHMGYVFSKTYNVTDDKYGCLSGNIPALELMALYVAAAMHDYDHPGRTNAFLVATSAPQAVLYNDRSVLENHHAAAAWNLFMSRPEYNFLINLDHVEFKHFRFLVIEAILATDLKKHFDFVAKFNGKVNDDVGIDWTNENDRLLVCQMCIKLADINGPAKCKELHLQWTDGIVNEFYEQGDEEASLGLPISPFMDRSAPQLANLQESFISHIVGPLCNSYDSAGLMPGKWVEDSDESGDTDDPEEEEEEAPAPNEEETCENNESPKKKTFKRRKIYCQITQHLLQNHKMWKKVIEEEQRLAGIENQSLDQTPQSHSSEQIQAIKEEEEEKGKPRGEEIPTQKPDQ

| SMILES | Ratio IC50/EC50 [1] | Fh at 1.5 h, 1 µM [2] | Fh at 1.5 h, 1 µM [3] | EC50 (HeLa) | predicted hepatic bioavailability (Fh) from hepatocyte stability at 1 µM [4] | clearance [5] | hepatic bioavailability predicted from hepatocyte stability (Fh) at 1 µM [6] | EC50 (SK-MEL3) | IC50 [7] |
| --- | --- | --- | --- | --- | --- | --- | --- | --- | --- |
| O=C1NN=C(c2ccc(-c3ccc(F)cc3)c(C(F)(F)F)c2)CO1 | 112 | 38% | 44% | 2.54 nM | 84% | 5.83 mL/min/kg | 70% | 7.95 nM | – |
| Cc1cc(-c2ccc(C3=NNC(=O)O[C@H]3C)cc2C(F)(F)F)ccn1 | 14 | – | – | 4.58 nM | – | – | – | 6.13 nM | – |
| Cc1ccc(-c2ccc(C3=NNC(=O)O[C@H]3C)cc2C(F)(F)F)cn1 | 8 | – | – | 4.37 nM | – | – | – | 6.31 nM | – |
| O=C1CCC(c2ccc(N3CCOCC3)c(F)c2)=NN1 | 31 | 80% | – | 6.18 nM | – | – | – | 19.9 nM | 190 nM |
| C[C@@H]1OC(=O)NN=C1c1ccc(-c2ccc(O)cc2)c(C(F)(F)F)c1 | 38 | – | – | 0.68 nM | – | – | – | 1.14 nM | 26.2 nM |
| C[C@@H]1CC(=O)NN=C1c1ccc(N2CCCCC2)cc1 | 126 | – | – | 1.72 nM | 27% | – | – | 4.48 nM | 217 nM |
| C[C@@H]1OC(=O)NN=C1c1ccc(-c2ccnc(N)c2)c(C(F)(F)F)c1 | 109 | 36% | 56% | 0.69 nM | 83% | 42 mL/min/kg | 31% | 1.43 nM | 76 nM |
| C[C@@H]1OC(=O)NN=C1c1ccc(-c2ccncc2)c(C(F)(F)F)c1 | 112 | 41% | – | 0.6 nM | 93% | – | – | 1.09 nM | 67 nM |
| Cc1cc(C2=NNC(=O)OC2)ccc1-c1ccc(F)cc1 | 44 | 40% | 48% | 4.94 nM | 88% | – | 75% | 12.8 nM | – |
| C[C@@H]1CC(=O)NN=C1c1cc(F)c(N2CCOCC2)c(F)c1 | 4 | – | – | 0.97 nM | 90% | – | – | 2.07 nM | 3.95 nM |
| COc1ccc(-c2ccc(C3=NNC(=O)O[C@H]3C)cc2C(F)(F)F)cn1 | 4 | – | – | 22.5 nM | – | – | – | 39.8 nM | – |
| O=C1NN=C(c2ccc(N3CCOCC3)c(F)c2)CO1 | 26 | 47% | 100% | 6.9 nM | 94% | – | – | 15.6 nM | 180 nM |
| COc1ccc(-c2ccc(C3=NNC(=O)O[C@H]3C)cc2C(F)(F)F)cc1 | 4.1 | – | – | 21.8 nM | – | – | – | 37.7 nM | – |
| O=C1NN=C(c2ccc(N3CCOCC3)c(C(F)(F)F)c2)CO1 | 12 | – | – | 1.87 nM | 83% | – | – | 3.4 nM | 23 nM |
| C[C@@H]1OC(=O)NN=C1c1ccc(-c2ccc(Cl)cn2)c(C(F)(F)F)c1 | >90 | 53% | 24% | 11.1 nM | 78% | – | – | 0.25 nM | > 1000 nM |
| C[C@@H]1CC(=O)NN=C1c1ccc(N2CCOCC2)c(F)c1 | 18 | – | – | 0.68 nM | 94% | – | – | 1.38 nM | 12.7 nM |
| Cc1ccncc1-c1ccc(C2=NNC(=O)O[C@H]2C)cc1C(F)(F)F | 6 | – | – | 38.7 nM | – | – | – | 54.2 nM | – |
| O=C1NN=C(c2ccc(-c3ccc(F)cc3)c(OC(F)(F)F)c2)CO1 | 39 | 32% | 68% | 5.67 nM | 85% | – | 80% | 12.9 nM | 222 nM |
| C[C@@H]1CC(=O)NN=C1c1cc(F)c(N2CCOCC2)c(Cl)c1 | 5.5 | – | – | 0.35 nM | 58% | – | – | 0.9 nM | 1.9 nM |
| C[C@@H]1OC(=O)NN=C1c1ccc(N2CCOCC2)c(F)c1 | 23 | – | – | 1.83 nM | 90% | – | – | 2.6 nM | 43 nM |
| O=C1CCC(c2cc(Cl)c(N3CCOCC3)c(Cl)c2)=NN1 | 8.5 | – | – | 6.9 nM | – | – | – | 16.8 nM | – |
| C[C@@H]1OC(=O)NN=C1c1ccc(N2CCN(C)CC2)c(C(F)(F)F)c1 | 172 | 18% | – | 0.32 nM | 11% | – | – | 0.82 nM | 55 nM |
| O=C1NN=C(c2ccc(N3CCC(F)(F)CC3)c(C(F)(F)F)c2)CO1 | – | 37% | 28% | 1.59 nM | 67% | – | – | 5.06 nM | – |
| C[C@@H]1OC(=O)NN=C1c1ccc(-c2ccccc2F)c(C(F)(F)F)c1 | 18 | – | – | 8.19 nM | – | – | – | 15.1 nM | – |
| C[C@@H]1OC(=O)NN=C1c1ccc(-c2cccc(F)c2)c(C(F)(F)F)c1 | 22 | – | – | 3.42 nM | – | – | – | 5.85 nM | – |
| O=C1NN=C(c2ccc(N3CCC(F)(F)CC3)c(F)c2)CO1 | 178 | 19% | – | 1.55 nM | 84% | 91.7 mL/min/kg | 82% | 3.85 nM | – |
| C[C@@H]1OC(=O)NN=C1c1ccc(N2CCOCC2)c(C(F)(F)F)c1 | 18 | – | – | 0.34 nM | 84% | – | – | 0.77 nM | 6.3 nM |
| O=C1CCC(c2ccc(N3CCOCC3)cc2)=NN1 | >12 | – | – | 78.3 nM | – | – | – | 101 nM | > 1000 nM |
| O=C1NN=C(c2ccc(-c3ccc(F)cc3)c(F)c2)CO1 | 57 | 54% | – | 1.48 nM | 84% | – | – | 3.6 nM | 84 nM |
